The source of these data is ChEMBL document CHEMBL5380826, “Conformationally Restricted σ1 Receptor Antagonists from (-)-Isopulegol” (J Med Chem, 2023).

The structures appear in SMILES notation. The source made the active and inactive calls. No cut-off for these calls is given here.

Series [1] addresses T1, Sigma intracellular receptor 2 (Rattus norvegicus, UniProt Q5U3Y7).
T1 sequence (Q5U3Y7 whole entry): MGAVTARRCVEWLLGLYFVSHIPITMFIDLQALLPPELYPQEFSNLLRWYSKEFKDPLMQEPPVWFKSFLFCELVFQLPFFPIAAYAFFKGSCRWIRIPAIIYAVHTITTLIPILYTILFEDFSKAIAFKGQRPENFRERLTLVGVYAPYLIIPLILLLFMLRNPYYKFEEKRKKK
In words: Displacement of [3H]di-o-tolylguanidine from rat liver membrane sigma 2 receptor assessed as inhibition constant measured after 120 mins by scintillation counting method. Format: cell membranes.

Series [2] addresses Sigma non-opioid intracellular receptor 1 (Cavia porcellus, UniProt Q60492). Kind of series: Displacement of [3H]-(+)-pentazocine from guinea pig brain membrane sigma 1 receptor assessed as inhibition constant measured after 120 mins by scintillation counting method. The class given is cell membranes.
The target in series [3] is Glutamate receptor ionotropic, NMDA 2B (Mus musculus, UniProt P35438+Q01097). In words: Displacement of [3H]ifenprodil from GluN2B in mouse LTK cells assessed as inhibition constant measured after 120 mins by scintillation counting method. The class given is cell-based.
Chain of Glutamate receptor ionotropic, NMDA 2B (Q01097 whole entry, one chain of several): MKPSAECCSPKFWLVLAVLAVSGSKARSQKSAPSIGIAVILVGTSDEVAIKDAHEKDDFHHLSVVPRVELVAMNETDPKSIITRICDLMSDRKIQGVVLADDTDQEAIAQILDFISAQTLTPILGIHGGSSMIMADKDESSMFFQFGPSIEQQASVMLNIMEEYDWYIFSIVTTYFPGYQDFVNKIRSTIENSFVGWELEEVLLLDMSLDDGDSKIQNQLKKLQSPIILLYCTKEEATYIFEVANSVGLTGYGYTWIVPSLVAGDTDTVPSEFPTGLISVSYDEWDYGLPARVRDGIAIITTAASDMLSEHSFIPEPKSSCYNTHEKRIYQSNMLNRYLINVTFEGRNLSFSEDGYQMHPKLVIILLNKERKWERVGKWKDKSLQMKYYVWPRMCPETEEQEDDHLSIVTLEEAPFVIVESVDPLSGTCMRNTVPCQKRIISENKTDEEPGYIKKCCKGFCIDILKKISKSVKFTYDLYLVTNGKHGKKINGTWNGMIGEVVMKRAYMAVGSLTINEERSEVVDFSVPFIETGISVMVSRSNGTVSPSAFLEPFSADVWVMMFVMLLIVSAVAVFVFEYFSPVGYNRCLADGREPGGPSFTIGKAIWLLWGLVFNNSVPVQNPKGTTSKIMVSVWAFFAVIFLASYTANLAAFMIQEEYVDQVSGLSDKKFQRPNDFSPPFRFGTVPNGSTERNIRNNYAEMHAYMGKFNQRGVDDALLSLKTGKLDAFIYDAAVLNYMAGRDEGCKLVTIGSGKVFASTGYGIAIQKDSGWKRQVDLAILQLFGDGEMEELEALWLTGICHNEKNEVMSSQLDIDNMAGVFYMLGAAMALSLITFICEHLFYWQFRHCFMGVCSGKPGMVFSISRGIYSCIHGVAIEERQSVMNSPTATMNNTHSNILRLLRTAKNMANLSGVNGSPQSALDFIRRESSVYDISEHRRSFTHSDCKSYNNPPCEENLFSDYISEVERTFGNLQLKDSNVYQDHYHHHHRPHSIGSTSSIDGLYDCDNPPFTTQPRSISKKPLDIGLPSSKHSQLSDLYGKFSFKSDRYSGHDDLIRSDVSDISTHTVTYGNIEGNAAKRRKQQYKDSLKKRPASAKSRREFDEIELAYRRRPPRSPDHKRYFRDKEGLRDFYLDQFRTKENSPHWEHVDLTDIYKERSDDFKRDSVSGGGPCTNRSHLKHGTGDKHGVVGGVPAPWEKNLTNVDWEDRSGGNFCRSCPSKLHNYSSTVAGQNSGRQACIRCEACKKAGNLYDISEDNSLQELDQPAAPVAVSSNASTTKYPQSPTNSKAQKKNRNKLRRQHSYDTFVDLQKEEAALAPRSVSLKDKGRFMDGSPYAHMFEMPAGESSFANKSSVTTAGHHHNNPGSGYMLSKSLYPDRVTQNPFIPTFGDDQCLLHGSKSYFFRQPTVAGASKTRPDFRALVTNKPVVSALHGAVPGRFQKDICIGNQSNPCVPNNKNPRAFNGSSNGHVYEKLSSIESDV
The nature of series [4]: Plasma protein binding in human by HPAC method. The class given is ADME, cell-free. Particulars: read-out: PPB (converted).
A short description of series [5]: Lipophilicity, logD of the compound at pH 7.4 by LC-MS analysis. Format: physicochemical. As to conditions: buffer.
For series [6], the target named is Glutamate receptor ionotropic, NMDA 2B (Mus musculus) (UniProt Q01097). Kind of series: Displacement of [3H]ifenprodil from GluN2B in mouse LTK cells at 1 uM measured after 120 mins by scintillation counting method relative to control. The class given is cell-based.
Chain of Glutamate receptor ionotropic, NMDA 2B (Mus musculus) (Q01097 whole entry): as the sequence (Q01097 whole entry, one chain of several) above
The target of series [7] is T2, Sigma intracellular receptor 2 (Rattus norvegicus) (UniProt Q5U3Y7).
T2 sequence (whole entry): T1 sequence (Q5U3Y7 whole entry)
In words: Displacement of [3H]di-o-tolylguanidine from rat liver membrane sigma 2 receptor at 1 uM measured after 120 mins by scintillation counting method relative to control. Format: cell membranes.

Series [8] has as its system Mus musculus. In words: Antiallodynic activity in sc dosed capsaicin-induced allodynia CD1 mouse model pretreated for 30 mins followed by capsaicin addition and measured after 15 mins. Format: functional. As to conditions: CD1, 0.75 h, time 45 min.
A short description of series [9]: Metabolic stability in C57BL/6 mouse liver microsomes assessed as compound remaining incubated for 90 mins in presence of NADPH by LC-MS analysis. Format: ADME, Microsome. As to conditions: read-out: Activity.
Series [10] deals with Mus musculus. Kind of series: Antiallodynic activity in capsaicin-induced allodynia CD1 mouse model at 16 mg/kg, sc pretreated for 30 mins followed by capsaicin addition and measured after 15 mins relative to control. Format: functional. As to conditions: time 45 min, 0.75 h.
For series [11], the system named is Mus musculus. Kind of series: Antiallodynic activity in capsaicin-induced mechanical allodynia CD1 mouse model assessed as increase in paw withdrawal latency at 16 mg/kg, sc pretreated with PRE-084 followed by compound addition. Format: functional, organism-based.
Series [12] has as its system Mus musculus. In words: Antiallodynic activity in capsaicin-induced mechanical allodynia CD1 mouse model assessed as increase in paw withdrawal latency at 4 to 32 mg/kg, sc pretreated for 30 mins followed by capsaicin addition and measured after 15 mins. The class given is functional, organism-based. Particulars: dose 4-32 mg/kg, time 45.0 min.
In series [13] the test system is Mus musculus. Kind of series: Antiallodynic activity in capsaicin-induced mechanical allodynia CD1 mouse model assessed as increase in paw withdrawal latency at 32 mg/kg, sc pretreated for 30 mins followed by capsaicin addition and measured after 15 mins. Format: functional, organism-based. As to conditions: time 45.0 min.
Series [14] relates to Mus musculus. Kind of series: Antiallodynic activity in ip dosed capsaicin-induced allodynia CD1 mouse model measured after 15 mins. The class given is functional. As to conditions: CD1, 0.25 h.
The subject of series [15] is Mus musculus. Kind of series: Antiallodynic activity in capsaicin-induced allodynia CD1 mouse model at 16 mg/kg, ip measured after 15 mins relative to control. Format: functional. Particulars: 0.25 h.

Chain of Sigma non-opioid intracellular receptor 1 (Q60492 whole entry): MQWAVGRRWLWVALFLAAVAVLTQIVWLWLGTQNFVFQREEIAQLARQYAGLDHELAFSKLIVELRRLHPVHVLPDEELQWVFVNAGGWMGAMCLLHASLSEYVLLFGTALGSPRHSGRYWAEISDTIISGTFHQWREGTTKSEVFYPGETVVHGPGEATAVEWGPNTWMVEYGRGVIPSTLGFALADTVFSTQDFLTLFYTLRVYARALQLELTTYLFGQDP

As to `C[C@@H]1CC[C@@H]([C@](C)(O)CN2CCC(Cc3ccccc3)CC2)[C@H](O)C1`, the Ki in [1] worked out at 194 nM; in series [2] it was 2.8 nM; in [3] it was 92 nM.

Consider `C[C@@H]1CC[C@@H]2[C@H](C1)OCO[C@@]2(C)CN1CCC(Cc2ccccc2)CC1`, for which the Ki was 145 nM in [1], 4.9 nM in series [2] and 205 nM in series [3].

For the molecule `C[C@@H]1CC[C@@H]([C@@](C)(O)CNCCCCc2ccccc2)[C@H](O)C1`, the results for the Ki in series [1], in series [2] and in series [3] were 850 nM, 8.2 nM and 1300 nM, respectively. Besides, in [4], the fraction unbound was 0.073. In series [5], this molecule yielded a logD of 1.84.

For `C[C@@H]1CC[C@@H]2[C@H](C1)OC1CN(CCCCc3ccccc3)C[C@]2(C)O1` (single isomer, unassigned), the inhibition in [6] and in series [7] was 0% throughout. In series [2], the Ki was found to be 725 nM.

For `C[C@@H]1CC[C@@H]2[C@@H](C1)OCO[C@]2(C)CNCCCCc1ccccc1`, the Ki in [1] is 322 nM; in series [2], 9.7 nM; in series [3], 408 nM.

Turning to `C[C@@H]1CC[C@@H]2[C@@H](C1)OCO[C@]2(C)CN1CCC(Cc2ccccc2)CC1`, the Ki in [1] was found to be 379 nM; in series [2], 1.6 nM; in series [3] it was 370 nM.

`C[C@@H]1CC[C@@H]2[C@H](C1)OCO[C@@]2(C)CNCCCCc1ccccc1`: the Ki in [1] was 525 nM; in series [2] it was 8.6 nM; in series [3], 313 nM.

`C[C@@H]1CC[C@@H]2[C@@H](C1)O[C@@H]1CN(CCCCc3ccccc3)C[C@@]2(C)O1`: the inhibition in [6] stood at 0%. Besides, the Ki in series [1] was 1600 nM; in [2], 805 nM.

Turning to `C[C@@H]1CC[C@@H]([C@](C)(O)CNCCCCc2ccccc2)[C@H](O)C1`, the inhibition constant (Ki) in series [1] turned out to be 207 nM; in [2], 31 nM; in series [3], 508 nM.

Turning to `COc1ccc(CC2CCN(C[C@](C)(O)[C@@H]3CC[C@@H](C)C[C@H]3O)CC2)cc1`, the Ki was determined as 75 nM in series [1], 2.9 nM in series [2] and 45 nM in series [3].

In the case of `C[C@@H]1CC[C@@H]([C@@](C)(O)CNCCCCc2ccccc2)[C@@H](O)C1`, the Ki was 424 nM in [1], 7 nM in series [2] and 1060 nM in series [3].

For the molecule `C[C@@H]1CC[C@@H]2[C@@H](C1)OCO[C@@]2(C)CN1CCC(Cc2ccccc2)CC1`, the inhibition constant (Ki) in [1] worked out at 119 nM; in series [2], 5 nM; in [3] it was 36 nM. The log distribution coefficient (logD) in series [5] amounted to 3.45.

Regarding `C[C@@H]1CC[C@@H]2[C@@H](C1)OC(C)(C)O[C@@]2(C)CN1CCC(Cc2ccccc2)CC1`, the Ki in [1] worked out at 649 nM; in series [2], 16 nM; in series [3], 1300 nM.

In the case of `C[C@@H]1CC[C@@H]([C@@](C)(O)CN2CCC(Cc3ccccc3)CC2)[C@H](O)C1`, in the series on Mus musculus [8], the ED50 was roughly 8 mg/kg. Further, the results for the Ki in series [1], in [2] and in [3] were 36 nM, 1.2 nM and 53 nM, respectively. In [9], the remaining at 1.5 h is 19%. Moreover, in the series with Mus musculus [10], the Activity was roughly 89%. Moreover, the result with Mus musculus [11] was inactive. Moreover, the fraction unbound in series [4] is 0.122. For the same molecule, the outcome in the series with Mus musculus [12] was Active. For the same molecule, the logD in series [5] came to 3.05.

As to `Cc1cc(OCCN2CCOCC2)nn1-c1ccc2ccccc2c1`, in the series on Mus musculus [13], the outcome was Active. Moreover, the Ki was greater than 1000 nM in series [2] and greater than 58 nM in series [3]. The molecule further returned a 50% effective dose (ED50) with Mus musculus [14] of 26.3 mg/kg. In addition, the Activity with Mus musculus [15] is given as 43%.

As for `C[C@@H]1CC[C@@H]2[C@@H](C1)O[C@H]1CN(CCCCc3ccccc3)C[C@]2(C)O1`, the inhibition worked out at 6% in [6] and 0% in [7]. In addition, the Ki in series [2] stood at 2100 nM. In addition, the fraction unbound in [4] was less than 0.02. The molecule also registered a logD in [5] of 3.96.

Take `C[C@@H]1CC[C@@H]2[C@H](C1)O[C@@H]1CN(CCCCc3ccccc3)C[C@@]2(C)O1`: the results for the Ki in series [1], in [2] and in [3] were 779 nM, 54 nM and 890 nM, respectively.

With `CN1CCN(CCc2ccc(Cl)c(Cl)c2)CC1`, the Ki came to 449 nM in series [2] and 49 nM in series [3].

As for `C[C@@H]1CC[C@@H]2[C@H](C1)OCO[C@]2(C)CN1CCC(Cc2ccccc2)CC1`, the Ki in series [1] was 123 nM; in [2], 3.5 nM; in series [3], 267 nM.

On to `C[C@@H]1CC[C@@H]2[C@H](C1)OCO[C@]2(C)CNCCCCc1ccccc1`, for which the inhibition constant (Ki) in [1] is 273 nM; in series [2], 42 nM; in series [3], 263 nM.

`C[C@@H]1CC[C@@H]([C@@](C)(O)CN2CCC(Cc3ccccc3)CC2)[C@@H](O)C1`: the Ki in series [1] stood at 172 nM; in series [2] it was 1 nM; in series [3], 125 nM.

Consider `C[C@@H]1CC[C@@H]([C@](C)(O)CN2CCC(Cc3ccccc3)CC2)[C@@H](O)C1`, for which the Ki in [1] is 216 nM; in [2], 18 nM; in series [3] it was 363 nM.

Take `C[C@@H]1CC[C@@H]2[C@@H](C1)OC(C)(C)O[C@]2(C)CN1CCC(Cc2ccccc2)CC1`: the Ki in series [1] is 880 nM; in [2], 114 nM; in series [3], 423 nM.

In the case of `C[C@@H]1CC[C@@H]([C@](C)(O)CNCCCCc2ccccc2)[C@@H](O)C1`, the Ki was found to be 265 nM in series [1], 43 nM in series [2] and 511 nM in series [3].

With `C[C@@H]1CC[C@@H]2[C@@H](C1)OCO[C@@]2(C)CNCCCCc1ccccc1`, the Ki in series [1] turned out to be 86 nM; in series [2], 69 nM; in series [3], 61 nM. For the same molecule, the fraction unbound in [4] is 0.061. Also, the log distribution coefficient (logD) in series [5] is 2.67.
